Blank lines part the entries; values can stand above or below the compound they belong to.
What was measured:
[1] = Thiol-triggered H2S release in PBS containing CA (MB assay); conditions: for GSH-triggered H2S release: PBS containing GSH and CA
Experimental: To evaluate thiol effects on COS/H2S release from cyclic perthiocarbamate compound embodiments, compound 306a (50 μM) was incubated in PBS (pH 7.4, 10 mM) containing Cys or GSH (up to 4.0 mM) and CA (25 μg/mL) and H2S release was monitored by MB assay. […] Additionally, other thiol triggers, such as cysteine, homocysteine, and N-acetyl cysteine, were combined with compound 306a to evaluate if they would trigger the compound to release H2S.
In this example, GSH-triggered H2S release from compound 900 was evaluated. […] To improve the H2S releasing capacity of ATB-346, compound 900 was made by reacting ATB-346 with chlorocarbonyl sulfenyl chloride reagent (see Scheme 9). The resultant compound 900 was then added to PBS containing GSH and CA.
Release of H2S from compound 404c (25 μM) in the presence of L-cysteine or reduced glutathione (GSH) (500 μM, 20 equiv.) measured by the spectrophotometric methylene blue assay, with results shown in FIG. 17.
In this example, additional compounds, such as cyclic sulfenyl thiocarbamate compounds 306a-306e, were evaluated for their ability to release H2S upon exposure to a biological thiol, cysteine.
With the hybrid NSAID in hand, COS/H2S release in aqueous buffer was evaluated.

[2] = Selectivity of fluorescence turn on to cellular RSONs and thiols; conditions: 10 μM, PBS at physiological pH, 2 hours
Experimental: Representative Procedure for Evaluating Selectivity of Compound EmbodIments to Cellular RSONs—To 3.00 mL of PBS was added a stock solution of compound 202a (3.00 μL, 10.0 mM in DMSO), followed by the addition of RSON stock solution (30.0 μL, 10.0 mM in H2O). After 2 hours of incubation at room temperature, the solution was excited at 490 nm and the fluorescence intensity (500-650 nm) was measured and recorded by using a Quanta Master 40 spectrofluorometer. For the NEM-pretreated group, NEM (30.0 μL, 1.00 M) was added to PBS (3.00 mL) containing CA (25.0 μg/mL) and Cys (100 μM). The solution was then incubated for 1 hour before adding the compound 202a stock solution (3.00 μL, 10.0 mM in DMSO).
In this example, fluorescence turn on of compound 202a (10 μM) in the presence of cellular reactive sulfur, oxygen, and nitrogen species (RSONs) (100 μM) was evaluated. […] Compound 202a (10 μM) was incubated with GSH, homocysteine (Hcy), N-acetyl cysteine (NAC), penicillamine (PEN), or bovine serum albumin (BSA) (100 μM), in PBS buffer (pH 7.4, 10 mM) containing CA (25 μg/mL) and the fluorescent intensity was measured after 2 hours. […]
Compound 202a also (10 μM) was incubated with RSONs (100 μM), such as H2O2, ClO^−, O2^−, TBHP, Ser, Lys, Gly, GSSG, and GSNO, and COS/H2S release was monitored by tracking the fluorescein formation. […]

[3] = test system: HeLa cells; experiment: Cytotoxicity in HeLa cells (CCK-8); type: cell-based; conditions: 6.25-50.0 μM, 30 minutes
Experimental: In this example, H2S delivery from compound 202a in HeLa cells was evaluated. To determine whether compound embodiments of the present disclosure can be activated to release COS/H2S in cellular environment, HeLa cells were treated with compound 202a under different conditions. HeLa cells were treated with compound 202a (50 μM) or compound 204 (50 μM) and H2S release was monitored using C7-Az, a H2S-responsive fluorescent probe. […] To confirm that compound 202a was not cytotoxic, confluent HeLa cells were incubated in FBS-free DMEM containing vehicle (0.5% DMSO), and compound 202a (6.25-50.0 μM) for 30 minutes in a 96-well plate. The culture media were then removed and 100 μL of FBS-free DMEM containing 10% CCK-8 solution was added to each well, and cells were incubated for 2 hours at 37° C. The absorbance at 450 nm was measured by using a microplate reader (see FIG. 8). The cell viability was measured and normalized to the vehicle group. The results are expressed as mean t SEM (n=6).

[4] = test system: porcine liver esterase (PLE); experiment: Esterase stability of the sulfenyl thiocarbonate group (fluorescence); type: in vitro ADME; conditions: compound 10 μM, PLE 1 U/mL, 2-hour incubation
Experimental: Compound 202a also (10 μM) was incubated with RSONs (100 μM), such as H2O2, ClO^−, O2^−, TBHP, Ser, Lys, Gly, GSSG, and GSNO, and COS/H2S release was monitored by tracking the fluorescein formation. […] Because the carbonate functional group may be sensitive to esterase-catalyzed hydrolysis, the esterase stability of the sulfenyl thiocarbonate group also was evaluated by incubating compound 202a (10 μM) with porcine liver esterase (PLE, 1 U/mL).

[5] = Cys-triggered fluorescence turn on in PBS; conditions: for fluorescence response to Cys: compound 10 μM, Cys 100 μM, PBS pH 7.4
Experimental: Representative Measurement of Fluorescence Intensity of Compound Embodiments—A freshly prepared compound 202a stock solution (3.00 μL, 10.0 mM in DMSO) was added to 3.00 mL of PBS (Ph 7.40, 10.0 Mm) containing CA (25.0 μg/mL) in a quartz fluorescence cuvette. A Cys stock solution (10.0 mM) was then added to reach the desired working concentration. The reaction solution was excited at 490 nm and the fluorescence intensity (500-650 nm) was measured and recorded using a Quanta Master 40 spectrofluorometer.
In this example, it was determined that Cys-induced compound 202a activation can be monitored by tracking the fluorescein formation and accompanied fluorescence response, and, in some embodiments, the reaction proceeds more quickly when higher concentrations of thiols are added. Time-dependent fluorescence spectra (FIG. 2A) and UV-vis spectra (FIG. 2B) of a particular compound embodiment, compound 202a, (10 μM) in PBS buffer (pH 7.4, 10 mM) containing Cys (100 μM) and CA (25 μg/mL) were obtained using a fluorescence spectrometer. […] Fluorescein formation was also confirmed by UV-vis spectroscopy under the identical conditions (FIG. 2B). Specifically, a freshly prepared compound 202a stock solution (3.00 μL, 10.0 mM in DMSO) was added to 3.00 mL of PBS (pH 7.40, 10.0 mM) containing CA (25.0 μg/mL) in a quartz UV cuvette. A Cys stock solution (30.0 μL, 10.0 mM in H2O) was then added. The absorbance (350-600 nm) was measured for 3 hours using a Cary 100 spectrometer. A Cys-dependent fluorescence enhancement was observed when treating compound 202a (10 μM) with increasing concentrations of Cys (1-20 equiv.), indicating a high sensitivity of compound 202a towards Cys. […] In addition, to confirm the H2S delivery from compound 202a, compound 202a (10 μM) was treated with Cys (100 μM) in PBS containing CA (25 μg/mL) and quantified H2S release using the MB assay. […] Optical measurement conditions were as follows: […], and slit width=0.3 mm.

[6] = test system: RAW 264.7 cells; experiment: Cytotoxicity in RAW 264.7 cells (CCK-8); type: cell-based; conditions: concentrations up to 25 μM, 2 hours
Experimental: In this example, cytoprotective activity of compound 202a against LPS-induced inflammation was evaluated. […] The compounds of the present disclosure were therefore evaluated to determine their anti-inflammatory activities due to H2S release. RAW 264.7 cells were incubated with compound 202a (0-25 μM) for 2 hours, followed by a 24-hour incubation with lipopolysaccharide (LPS, 0.5 μg/mL) to trigger the inflammatory response. The inflammation event usually results in the NO generation, which can be monitored by measuring nitrite (NO2—) accumulation. […] In particular, confluent RAW 264.7 cells were incubated in FBS-free DMEM containing vehicle (0.5% DMSO), compound 202a, BnSH, and compound 204 (10.0-100 μM) for 2 hours in a 96-well plate. The culture media were then removed and 100 μL of FBS-free DMEM containing 10% CCK-8 solution was added to each well, and cells were incubated for 2 hours at 37° C. The absorbance at 450 nm was measured by using a microplate reader (FIG. 9). The cell viability was measured and normalized to the vehicle group. The results are expressed as mean t SEM (n=6).

[7] = Spectroscopic properties in PBS buffer (pH 7.4, 10 mM); type: physicochemical; conditions: PBS (pH 7.4, 10 mM)
Experimental: In this example, the spectroscopic properties in PBS buffer (pH 7.4, 10 mM) of compounds 202a-202d, and control compound 204. Compounds 202a-202c and control compound 204 were not absorptive in the visible region and are all these compounds were not fluorescent because the fluorescein unit is locked in the closed lactone form.

[8] = test system: HeLa cells; experiment: Cellular imaging of H2S delivery in HeLa cells with C7-Az probe; type: cell-based; conditions: compound 50 μM, C7-Az 50 μM, 30 minutes
Experimental: HeLa cells were then plated in poly-D-lysine coated plates (MatTek) containing 2.00 mL of DMEM and incubated at 37° C. under 5% CO2 for 24 hours. The confluent cells were washed with PBS and then co-incubated with NucRed nuclear dye (2 drops), C7-Az (50.0 μM), and compound 202a (50.0 μM) for 30 minutes. Prior to imaging, the cells were washed with PBS and bathed in 2.00 mL of PBS. Cell imaging was performed on a Leica DMi8 fluorescent microscope. […] To confirm that compound 202a was not cytotoxic, confluent HeLa cells were incubated in FBS-free DMEM containing vehicle (0.5% DMSO), and compound 202a (6.25-50.0 μM) for 30 minutes in a 96-well plate. The culture media were then removed and 100 μL of FBS-free DMEM containing 10% CCK-8 solution was added to each well, and cells were incubated for 2 hours at 37° C. The absorbance at 450 nm was measured by using a microplate reader (see FIG. 8). The cell viability was measured and normalized to the vehicle group. The results are expressed as mean t SEM (n=6).

[9] = test system: RAW 264.7 cells; experiment: Anti-inflammatory activity: LPS-induced NO2- accumulation (Griess); type: cell-based; conditions: pretreatment 25 μM for 2 hours, then LPS 0.500 μg/mL 24 hours
Experimental: Representative Procedure for Determining Anti-Inflammatory Activities of Compound Embodiments and Control Compounds—Macrophage RAW 264.7 cells were seeded in a 24-well plate (5×10^5 cells/well) containing 0.500 mL of DMEM and incubated at 37° C. under 5% CO2 for 24 hours. The confluent cells were washed with PBS and incubated with either compound 202a (0-25.0 μM), or GYY4137 (25.0 μM) at 37° C. for 2 hours. Compounds were then removed by washing cells with PBS and these pretreated cells were incubated in FBS-free DMEM containing LPS (0.500 μg/mL) for 24 hours. NO2— levels were measured by using a Griess Reagent Kit.

[10] = test system: RAW 264.7 cells; conditions: 100-1000 μM and 24-hour incubation; cited from earlier work

Compound: COc1ccc2cc(C(C)C(=O)Oc3ccc(C(N)=S)cc3)ccc2c1 (centres unmarked) [ATB-346, reference compound]
- GSH-triggered H2S release [1]: not detected

- stability in PBS in the absence of thiols [2]: stable
- fluorescence with porcine liver esterase [4]: slight fluorescence turn on
- fluorescent signal in the absence of Cys (stability in aqueous buffer) ([5]; compound 10 μM in PBS, no Cys): No fluorescent signal was observed
Compound: O=C(Oc1ccc2c(c1)Oc1cc(OC(=O)SSCc3ccccc3)ccc1C21OC(=O)c2ccccc21)SSCc1ccccc1 [Compound 202a]
- cytotoxicity in HeLa cells [3]: not cytotoxic
- cytotoxicity in RAW 264.7 cells [6]: did not induce cytotoxicity

- Φ [7]: 0.11 ± 0.01
- ε [7]: 27,300 ± 2500 M^−1cm^−1
- λem [7]: 514 nm
- λmax [7]: 449 nm
Compound: O=C(Oc1ccc2c(c1)Oc1cc(O)ccc1C21OC(=O)c2ccccc21)SSCc1ccccc1 (centres unmarked) [Compound 202d]
- fluorescence response to Cys [5]: minimal fluorescence enhancement

Compound: O=C(Oc1ccc2c(c1)Oc1cc(OC(=O)SCc3ccccc3)ccc1C21OC(=O)c2ccccc21)SCc1ccccc1 [Compound 204]
- fluorescence response to Cys [5]: No fluorescence response
- C7-Az (H2S probe) fluorescence in HeLa cells [8]: failed to turn on the fluorescence
- anti-inflammatory activity at 25 μM (NO2− production) [9]: none of these species exhibited anti-inflammatory activities

Compound: O=c1ssc(=O)n1-c1ccc(Cl)cc1 [Compound 404c]
- COS released on reaction with thiols ([1]; compound 25 μM, L-cysteine or GSH 500 μM (20 equiv.), CA, MB assay): two equivalents of COS

Compound: COc1ccc2cc(C(C)C(=O)Oc3ccc(-c4nc(=O)ss4)cc3)ccc2c1 (centres unmarked) [Compound 900]
- GSH-triggered H2S release [1]: promising H2S release was observed
- thiol-triggered H2S release in buffer with CTAB ([1]; compound 50 μM, PBS pH 7.4, CTAB 1.0 mM, CA 25 μg/mL, Cys or GSH 1.0 mM): thiol-triggered H2S release was immediately observed

Compound: C1COCCN1.COc1ccc(P(=S)(S)N2CCOCC2)cc1 (centres unmarked) [GYY4137]
- anti-inflammatory effects at higher concentration and longer incubation [10]: anti-inflammatory effects
- anti-inflammatory activity at 25 μM (NO2− production) [9]: such cytoprotection was not observed

Compound: SCc1ccccc1 [benzyl mercaptan]
- anti-inflammatory activity at 25 μM (NO2− production) [9]: none of these species exhibited anti-inflammatory activities

Source: patent US20210214368A1, “COMPOUNDS FOR THIOL-TRIGGERED COS AND/OR H2S RELEASE AND METHODS OF MAKING AND USING THE SAME” (University of Oregon, priority 2018, published 2021)
